# Assay results as given in patent publication US11590129B2, “Combination therapy with an antitumor alkaloid” (PHARMA MAR, S.A., priority 2010, dated 2023).
# Assays:
# [1] = tested on: PC-3 human prostate cancer cell line; experiment: cells; conditions: Homo sapiens, PC-3, 72 h
# Summary of the method: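 Cells seeded at 5,000/well, grown 24 h drug-free, then exposed to vehicle or test compounds for 72 h. Viability by MTT reduction (8 h, 37 °C), formazan dissolved in DMSO. Values given as percentage of control cell growth.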
# [2] = tested on: PANC-1 human pancreatic carcinoma cell line; experiment: cells; conditions: Homo sapiens, PANC-1, 72 h
# Summary of the method: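 Cells seeded at 5,000/well, left 24 h drug-free, then exposed to test compounds for 72 h. Viability read by MTT reduction (MTT added for 8 h at 37° C, formazan dissolved in DMSO).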
# [3] = tested on: IGROV-1 human ovarian adenocarcinoma cell line; experiment: cells; conditions: Homo sapiens, IGROV-1, 72 h
# [4] = tested on: A549 human lung carcinoma cell line; experiment: MTT cytotoxicity assay in A549 cells: IC50 of single agents and combinations with PM01183; assay type: cell-based; conditions: Homo sapiens, A549, 72 h
# Summary of the method: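 A549 cells seeded at 5,000 per well, grown 24 h drug-free, then exposed to vehicle or compounds for 72 h, either singly or combined with PM01183. Combination responses plotted against dose ratio relative to an additivity line.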
# [5] = tested on: MDA-MB-231 human breast adenocarcinoma cell line; experiment: cells; conditions: Homo sapiens, MDA-MB-231, 72 h
# [6] = tested on: RXF-393 human kidney carcinoma cell line; experiment: cells; conditions: Homo sapiens, RXF 393, 72 h
# HT1080 tumors = experiment: Human fibrosarcoma (HT1080) orthotopically implanted in athymic nude mice, total diameter (tumor+leg) % T/C; assay type: in vivo
# Method: Female athymic nude mice (Harlan Laboratories Models, S.L. (Barcelona, Spain) were utilized for all experiments. Animals were housed in individually ventilated cages, up to ten per cage in a 12-hour light-dark cycle at 21-23° C. and 40-60% humidity. The mice were allowed free access to irradiated standard rodent diet and sterilized water. Animals were acclimated for at least 5 days prior to tumor implantation with a tumor cell suspension.
# HT1080 cells were grown at 37° C. with 5% CO2 in Minimum Essential Medium Eagle (MEME). Each animal was orthotopically implanted into gastroecnemius muscle by an intramuscular injection using 26G needle and a 1 cc syringe, with 5×10^6 HT1080 cells, from in vitro passage 9, suspended in serum free medium, without antibiotics.
# Total diameter (tumor+leg) measurements were determined by using digital caliper (Fowler Sylvac, S235PAT). This total diameter and animal body weights were measured 2-3 times per week starting from the first day of treatment.
# Treatment tolerability was assessed by monitoring body weight evolution, clinical signs as well as evidences of local damage in the injection site.
# PM01183 was provided in the form of vials of lyophilized PM01183 cake which was reconstituted with water for infusion to a concentration of 0.2 mg/mL. The PM01183 stock solution was further diluted in 5% glucose solution for injection to the dosing formulation concentrations. Dacarbazine was provided in the form of a solution prepared by diluting the product with 5% glucose solution for injection to the target final concentration.
# Dose level groups were administered either as single agents or in combination.
# Comparison of the median total diameter (tumor+leg) in the treatment groups (T) to the median total diameter (tumor+leg) in the control group (T/C×100%) was used for evaluation of the antitumor efficacy.
# [7] = tested on: U87-MG human glioblastoma cell line; experiment: cells; conditions: Homo sapiens, U-87 MG, 72 h
# [8] = PM01183 0.135 mg/kg iv days 0,7
compound,measurement,setting,value
COc1ccc2[nH]c3c(c2c1)CCN[C@]31CS[C@@H]2c3c(OC(C)=O)c(C)c4c(c3[C@H](COC1=O)N1[C@@H]2[C@H]2c3c(cc(C)c(OC)c3O)C[C@@H]([C@@H]1O)N2C)OCO4 [PM01183],IC50,[1],2.6 nM
same,IC50,[2],2.8 nM
same,IC50,[3],3.2 nM
same,IC50,[4],3.6 nM
same,IC50,[5],3.5 nM
same,IC50,[6],5 nM
same,% T/C on day 0,HT1080 tumors; PM01183 0.045 mg/kg,100%
same,% T/C on day 2,HT1080 tumors; PM01183 0.045 mg/kg,77.8%
same,% T/C on day 4,HT1080 tumors; PM01183 0.045 mg/kg,74.3%
same,% T/C on day 7,HT1080 tumors; PM01183 0.045 mg/kg,94.2%
same,% T/C on day 9,HT1080 tumors; PM01183 0.045 mg/kg,80.0%
same,% T/C on day 11,HT1080 tumors; PM01183 0.045 mg/kg,74.0%
same,% T/C on day 14,HT1080 tumors; PM01183 0.045 mg/kg,80.5%
same,% T/C on day 16,HT1080 tumors; PM01183 0.045 mg/kg,91.1%
same,% T/C on day 0,HT1080 tumors; PM01183 0.09 mg/kg,100%
same,% T/C on day 2,HT1080 tumors; PM01183 0.09 mg/kg,66.7%
same,% T/C on day 4,HT1080 tumors; PM01183 0.09 mg/kg,57.1%
same,% T/C on day 7,HT1080 tumors; PM01183 0.09 mg/kg,65.4%
same,% T/C on day 9,HT1080 tumors; PM01183 0.09 mg/kg,48.0%
same,% T/C on day 11,HT1080 tumors; PM01183 0.09 mg/kg,42.7%
same,% T/C on day 14,HT1080 tumors; PM01183 0.09 mg/kg,45.8%
same,% T/C on day 16,HT1080 tumors; PM01183 0.09 mg/kg,56.4%
same,"% T/C (median total diameter, tumor+leg) on day 9",HT1080 tumors; [8],36.0%
same,"% T/C (median total diameter, tumor+leg) on day 11",HT1080 tumors; [8],30.2%
same,"% T/C (median total diameter, tumor+leg) on day 14",HT1080 tumors; [8],33.0%
same,"% T/C (median total diameter, tumor+leg) on day 16",HT1080 tumors; [8],41.9%
same,% T/C on day 0,HT1080 tumors; PM01183 0.135 mg/kg,100%
same,% T/C on day 2,HT1080 tumors; PM01183 0.135 mg/kg,63.0%
same,% T/C on day 4,HT1080 tumors; PM01183 0.135 mg/kg,62.9%
same,% T/C on day 7,HT1080 tumors; PM01183 0.135 mg/kg,48.1%
same,% T/C on day 9,HT1080 tumors; PM01183 0.135 mg/kg,36.0%
same,% T/C on day 11,HT1080 tumors; PM01183 0.135 mg/kg,30.2%
same,% T/C on day 14,HT1080 tumors; PM01183 0.135 mg/kg,33.0%
same,% T/C on day 16,HT1080 tumors; PM01183 0.135 mg/kg,41.9%
same,"% T/C (median total diameter, tumor+leg) on day 9","HT1080 tumors; PM01183 0.18 mg/kg iv days 0,7",26.7%
same,"% T/C (median total diameter, tumor+leg) on day 11","HT1080 tumors; PM01183 0.18 mg/kg iv days 0,7",11.5%
same,"% T/C (median total diameter, tumor+leg) on day 14","HT1080 tumors; PM01183 0.18 mg/kg iv days 0,7",21.2%
same,"% T/C (median total diameter, tumor+leg) on day 16","HT1080 tumors; PM01183 0.18 mg/kg iv days 0,7",30.6%
same,% T/C on day 0,HT1080 tumors; PM01183 0.18 mg/kg,100%
same,% T/C on day 2,HT1080 tumors; PM01183 0.18 mg/kg,59.3%
same,% T/C on day 4,HT1080 tumors; PM01183 0.18 mg/kg,40.0%
same,% T/C on day 7,HT1080 tumors; PM01183 0.18 mg/kg,26.9%
same,% T/C on day 9,HT1080 tumors; PM01183 0.18 mg/kg,26.7%
same,% T/C on day 11,HT1080 tumors; PM01183 0.18 mg/kg,11.5%
same,% T/C on day 14,HT1080 tumors; PM01183 0.18 mg/kg,21.2%
same,% T/C on day 16,HT1080 tumors; PM01183 0.18 mg/kg,30.6%
same,IC50,[7],4.5 nM
